“Also recorded” adds a separate entry of the source. Like-named read-outs stand apart in the source and are kept apart here.

Data set [1] can be described thus: Evaluation of antioxidants for LEV stability in raw tablet compositions (Example 6). As to the method: The following procedures were used to identify the preferred antioxidant(s) suitable stabilizing LEV against oxidative degradation.
A powder blend containing the following ingredients in the amounts indicated was prepared.
A printing fluid containing the following ingredients in the amounts indicated was prepared.
For example, the amount of antioxidant would be “(IIG daily limit)/2” for a 1000 mg tablet administered twice daily. It should be understood that IIG limits are periodically changed by regulatory agencies. Accordingly, the limits specified below should be considered approximations and not as absolute limits to the amount of antioxidant that can be included in a dosage form.
The antioxidant was mixed with 6 mL of printing fluid. That mixture was then mixed with 30 g of powder blend to form a raw tablet composition, each of which was exposed to the following conditions: Condition 1—store composition at 70 C in tightly sealed glass jar; Condition 2—store composition at 50 C in loosely covered glass jar; and Condition 3—store composition at 40 C/75% RH in open glass jar.
The samples were subsequently analyzed by HPLC/MS and the identity of two key degradants was determined by comparison to standards. The key degradants were levetiracetam acid and oxo-levetiracetam.

A short description of data set [2]: Oxidative degradation of LEV in 3DP dosage form, HPLC/MS. The format is physicochemical. Particulars: antioxidant absent, oxidative excipient (povidone or silica with peroxide impurity) present. As to the method:
The stability of LEV to oxidative degradation when included in a 3DP dosage form of the invention was determined by exposing finished dosage forms to heat. The formation of degradants was observed and monitored by HPLC/MS as detailed below. […] Povidone and silica, however, are important functional ingredients. Accordingly, the invention provides a stable rapidly dispersible dosage form comprising LEV, oxidative excipient, antioxidant, binder and disintegrant, wherein the matrix comprises 0.1% by wt or less of an oxidative degradant of LEV after storage for six months at 21° C. and 75% RH.
The following procedures were used to analyze three-dimensionally printed solid porous orodispersible matrices and in support of drug-stability studies.
Samples were prepared by transferring approximately 380 mg of sample to a 50-mL volumetric flask with 30 mL of Diluent. The sample was sonicated for 10 minutes then filled to volume with Diluent. A portion was filtered through a 0.22 μm nylon filter, discarding the first 3-5 mL.
Mass spectrophotometry was conducted by directly infusing a sodium formate solution into the mass spectrometer through the lock spray at 100 μL/min using a syringe pump. The sodium formate peak at m/z 158.9646126 was used for accurate mass analysis. The accurate masses were used for elemental composition analysis using the MassLynx software. […]

The conditions of data set [3]: cited from earlier work.
For data set [4] the following is noted: accelerated (60° C.) stress: acidic, alkaline, aqueous, oxidative, thermal or photo; Shah 2012; cited from earlier work.
Where [5] appears, read: antioxidant at half IIG daily limit in raw tablet composition, 70 C sealed, 50 C loosely covered, 40 C/75% RH open.

Turning to `COc1ccc(O)c(C(C)(C)C)c1` [BHA, Butylated hydroxyanisole], in data set [1] (setting [5]), the “stability against oxidative degradation and color formation” value (“stability” below) is “improved stability against oxidative degradation and against color formation; also recorded: best results”.
On to `CC[C@@H](C(N)=O)N1CCCC1=O` [Levetiracetam, (S)-2-(2-oxopyrrolidin-1-yl)butanamide], for which, in data set [2], the “oxidative degradation of LEV in 3DP dosage form exposed to heat” value was “undergoes oxidative degradation to form oxo-levetiracetam”. In addition, the solubility in acetonitrile in data set [3] (acetonitrile) is recorded as 5.7 g/100 mL. For the same compound, the solubility in chloroform in data set [3] (chloroform) is given as 65.3 g/100 mL. Further, in data set [3] (ethanol), the solubility in ethanol is on record as 16.5 g/100 mL. Moreover, the solubility in methanol in data set [3] (methanol) is 53.6 g/100 mL. In data set [3] (n-hexane), the solubility in n-hexane result is recorded as “practically insoluble”. In addition, the solubility in water in data set [3] (water) is on record as 104.0 g/100 mL. In addition, the degradation under stress result in data set [4] is “substantial degradation”.
In the case of `Cc1c(C)c2c(c(C)c1O)CC[C@@](C)(CCC[C@H](C)CCC[C@H](C)CCCC(C)C)O2` [Vitamin E, Alpha-tocopherol], the “stability” value in data set [1] was “improved stability against oxidative degradation and against color formation”.
On the same count and under the same terms, with `CSCC[C@H](N)C(=O)O` [methionine, Methionine] the entry was “improved stability against oxidative degradation and against color formation”.
In the case of `O=S([O-])O.[Na+]` [sodium bisulfite, Sodium bisulfite], the “stability” value in data set [1] (setting [5]) was “improved stability against oxidative degradation and against color formation”; in data set [1] (antioxidant at half IIG daily limit in raw tablet composition, 70 C sealed, 50 C loosely covered, 40 C/75% RH open, listed as Sodium bisulfite), “best results”.
Consider `O=S([O-])[O-].[Na+].[Na+]` [sodium sulfite, Sodium sulfite], for which the “stability” value in data set [1] (setting [5]) was “improved stability against oxidative degradation and against color formation; also recorded: best results”.

These data come from patent US9669009B2, “Rapid disperse dosage form containing levetiracetam” (APRECIA PHARMACEUTICALS COMPANY, priority 2013, dated 2017).
